Compound: CCN1C(=O)C2=CC(=C(N=C2N(C1=O)C3CC3)N)C(=O)N
Experiment: relative viability (nuclei count vs DMSO), 5 days (fraction); higher = more cells survive
Summary of the method: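 Vehicle-anchored 1536-well plates of lung cancer cell lines, held overnight at 37 °C, were pinned with five library-drug doses (not always all listed) spaced by √10. No medium change followed over the next 5 days, after which the cells were fixed, permeabilised and Hoechst-stained together and imaged at 4×. Nuclei were counted with MetaXpress, and viability is treated-well nuclei over vehicle-well nuclei, taken as a median across plates. Plates passed with control CV below 25% and at least one doubling.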

Cell Line | relative viability (0.253 µM) | relative viability (0.8 µM) | relative viability (2.53 µM) | relative viability (8 µM)
NCI-H661 | 1.03 | 0.991 | 0.972 | 0.961
NCI-H727 | 0.98 | 0.892 | 0.976 | 0.828
NCI-H838 | 0.99 | 0.965 | 0.923 | 0.96
NCI-H1355 | 1 | 0.998 | 0.992 | 0.973
NCI-H1395 | 0.935 | 0.972 | 1.08 | 0.921
NCI-H1437 | 0.982 | 0.979 | 0.969 | 0.972
NCI-H1650 | 0.937 | 0.932 | 0.901 | 0.877
NCI-H1651 | 0.929 | 0.976 | 0.965 | 0.948
NCI-H1666 | 0.93 | 0.986 | 0.959 | 0.938
NCI-H1703 | 0.953 | 0.871 | 0.886 | 1.07
NCI-H1734 | 0.9 | 0.903 | 0.948 | 0.943
NCI-H1755 | 0.984 | 1.02 | 1 | 0.979
NCI-H1792 | 0.763 | 0.786 | 1.08 | 0.832
NCI-H1793 | 0.808 | 1.02 | 0.815 | 1.12
NCI-H1915 | 0.988 | 1.01 | 1 | 0.922
NCI-H1944 | 1.01 | 0.919 | 0.954 | 0.827
NCI-H1975 | 1.01 | 0.917 | 0.957 | 0.892
NCI-H1993 | 0.972 | 0.83 | 0.919 | 0.878

Cell Line | relative viability (0.253 µM) | relative viability (0.8 µM) | relative viability (2.53 µM) | relative viability (8 µM)
NCI-H2009 | 1.02 | 1 | 0.946 | 0.923
NCI-H2023 | 0.937 | 0.901 | 0.836 | 0.896
NCI-H2085 | 1.01 | 0.99 | 0.941 | 0.966
NCI-H2087 | 0.972 | 1.14 | 1.05 | 1.03
NCI-H2126 | 1.02 | 0.989 | 0.972 | 0.963
NCI-H2170 | 0.983 | 0.928 | 1.02 | 0.925
NCI-H2228 | 0.99 | 1.01 | 0.902 | 0.965
NCI-H2342 | 1.04 | 0.821 | 0.907 | 0.948
NCI-H2347 | 0.98 | 1.04 | 1.08 | 1
NCI-H2405 | 1.09 | 1.02 | 1.06 | 0.982
NCI-H3122 | 1.01 | 1.01 | 0.993 | 0.956
PC-3 [JPC-3] | 1.06 | 1.01 | 1.06 | 1.08
PC-14 | 0.983 | 0.951 | 1.07 | 1.06
RERF-LC-KJ | 1.02 | 0.929 | 0.909 | 0.959
SK-LU-1 | 1.05 | 1.07 | 1.06 | 1.06
SK-MES-1 | 1.01 | 0.972 | 0.976 | 0.997
SW 1573 | 0.937 | 1.07 | 0.959 | 0.978
UMC-11 | 0.946 | 0.935 | 0.951 | 0.969
